The values below come from US7495100B2, “Synthesis of indenoisoquinolines” (Purdue Research Foundation, priority 2004, dated 2009).

Read-outs that look alike come from different tables or passages of the source.

Series [1] deals with human cancer cell lines in the National Cancer Institute screen. Nature of the series: NCI screen mean graph midpoint over approximately 55 cancer cell lines. Type of series: cell-based. Particulars: for MGM (mean graph midpoint for growth inhibition): average GI50 of all human cancer cell lines tested (approximately 55), test range 10^-8 to 10^-4 molar. As to the method:
(§1) The indenoisoquinolines described herein were examined for antiproliferative activity against the human cancer cell lines in the National Cancer Institute screen, in which the activity of each compound was evaluated with approximately 55 different cancer cell lines of diverse tumor origins. The MGM is based on a calculation of the average GI50 for all of the cell lines tested (approximately 55) in which GI50 values below and above the test range (10^−8 to 10^−4 molar) are taken as the minimum (10^−8 molar) and maximum (10^−4 molar) drug concentrations used in the screening test. The relative potencies of the compounds described herein in the production of topoisomerase I-mediated DNA cleavage are also listed in Table 1.

Series [2] concerns SN12C. Briefly: NCI screen antiproliferative activity, renal SN12C. The conditions noted are these: concentration corresponding to 50% growth inhibition, read-out: cytotoxicity GI50 renal SN12C. Type of series: cell-based, human. As to the method: as §1
The subject of series [3] is OVCAR-3. Nature of the series: NCI screen antiproliferative activity, ovarian OVCAR-3. Type of series: cell-based, human. Particulars: concentration corresponding to 50% growth inhibition, read-out: cytotoxicity GI50 ovarian OVCAR-3. The procedure:
as §1

Series [4] deals with T1, topoisomerase I (top1) (Homo sapiens, UniProt P11387).
T1 sequence (P11387 1-765): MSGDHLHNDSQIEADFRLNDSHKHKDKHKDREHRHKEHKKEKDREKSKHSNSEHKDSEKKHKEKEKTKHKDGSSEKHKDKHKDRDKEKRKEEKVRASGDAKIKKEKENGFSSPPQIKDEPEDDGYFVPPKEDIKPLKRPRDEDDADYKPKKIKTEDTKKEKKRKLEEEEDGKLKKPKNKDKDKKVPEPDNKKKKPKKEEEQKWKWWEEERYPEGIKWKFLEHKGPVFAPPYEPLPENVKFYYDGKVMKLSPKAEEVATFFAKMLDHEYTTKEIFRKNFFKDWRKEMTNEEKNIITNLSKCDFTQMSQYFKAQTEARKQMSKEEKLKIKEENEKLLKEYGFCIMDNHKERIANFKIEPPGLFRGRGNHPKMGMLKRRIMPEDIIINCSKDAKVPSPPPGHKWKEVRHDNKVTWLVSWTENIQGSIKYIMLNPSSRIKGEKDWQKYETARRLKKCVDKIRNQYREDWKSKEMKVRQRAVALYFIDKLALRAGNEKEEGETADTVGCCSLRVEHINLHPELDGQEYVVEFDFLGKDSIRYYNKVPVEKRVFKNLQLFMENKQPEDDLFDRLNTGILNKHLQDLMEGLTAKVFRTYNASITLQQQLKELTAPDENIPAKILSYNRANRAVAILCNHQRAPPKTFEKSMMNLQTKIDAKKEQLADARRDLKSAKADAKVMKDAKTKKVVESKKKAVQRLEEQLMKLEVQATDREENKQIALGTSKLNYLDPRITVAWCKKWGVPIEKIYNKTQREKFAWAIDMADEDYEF
Nature of the series: topoisomerase I-mediated DNA cleavage. It counts as biochemical. Further details: key: +: weak activity; ++: similar activity as the parent compound 25; +++: greater activity than the parent compound 25; ++++: similar activity as 1 μM camptothecin. Particulars: tested at concentrations ranging up to 10 μM; semi-quantitative. As to the method: as §1

The subject of series [5] is HOP-62. Briefly: NCI screen antiproliferative activity, lung HOP-62. It counts as cell-based, human. The conditions noted are these: concentration corresponding to 50% growth inhibition, read-out: cytotoxicity GI50 lung HOP-62. The procedure:
as §1

The test system of series [6] is UACC-62. Briefly: NCI screen antiproliferative activity, melanoma UACC-62. It counts as cell-based, human. The conditions noted are these: concentration corresponding to 50% growth inhibition, read-out: cytotoxicity GI50 melanoma UACC-62. As to the method: as §1
For series [7], the system named is DU-145. Briefly: NCI screen antiproliferative activity, prostate DU-145. Type of series: cell-based, human. The conditions noted are these: concentration corresponding to 50% growth inhibition, read-out: cytotoxicity GI50 prostate DU-145. The procedure: as §1
Series [8] relates to SF-268. Briefly: NCI screen antiproliferative activity, CNS SF-268. It counts as cell-based, human. Particulars: concentration corresponding to 50% growth inhibition, read-out: cytotoxicity GI50 CNS SF-268. As to the method: as §1
For series [9], the system named is MDA-MB-435. Briefly: NCI screen antiproliferative activity, breast MDA-MB-435. Type of series: cell-based, human. The conditions noted are these: concentration corresponding to 50% growth inhibition, read-out: cytotoxicity GI50 breast MDA-MB-435. As to the method: as §1
The subject of series [10] is HCT-116. Briefly: NCI screen antiproliferative activity, colon HCT-116. It counts as cell-based, human. The conditions noted are these: concentration corresponding to 50% growth inhibition, read-out: cytotoxicity GI50 colon HCT-116. The procedure:
as §1

Where [11] appears, read: average GI50 of all cell lines tested.

Turning to `O=C1c2cc3c(cc2-c2c1c1ccc([N+](=O)[O-])cc1c(=O)n2CCCCl)OCO3` [Compound 15], the “MGM (mean graph midpoint for growth inhibition)” value in [1] stood at 0.832 µM. Moreover, the GI50 (commonly the concentration giving 50% growth inhibition) in [2] worked out at 132 nM; in series [3], 9120 nM; in series [5] it was 410 nM; in series [6] it was 229 nM; in series [7] it was 98 nM; in [8] it was 148 nM. For the same compound, the 50% growth inhibitory concentration (GI50) came to 1820 nM in series [9] and 2400 nM in series [10]. In addition, the “Top 1 Cleavage” value in [4] is reported as “+++”.
Regarding `Cl.NCCCn1c2c(c3ccc([N+](=O)[O-])cc3c1=O)C(=O)c1ccccc1-2` [Compound 24], in [1], the “MGM (mean graph midpoint for growth inhibition)” value came to 0.245 µM. The GI50 in series [2] amounted to 102 nM; in series [5], 275 nM; in [6], 372 nM; in series [7], 148 nM; in series [8] it was 302 nM; in series [10] it was 85 nM.
`O=C1c2ccccc2-c2c1c1ccc([N+](=O)[O-])cc1c(=O)n2CCCCl` [Compound 22]: in series [1], the “MGM (mean graph midpoint for growth inhibition)” value was found to be 18.2 µM. Further, the GI50 worked out at 26900 nM in series [2] (Homo sapiens, SN12C); 4900 nM in series [3] (Homo sapiens, OVCAR-3); 43700 nM in series [5] (Homo sapiens, HOP-62); 20400 nM in series [6] (Homo sapiens, UACC-62); 40700 nM in [7] (Homo sapiens, DU-145); 23400 nM in series [8] (Homo sapiens, SF-268). The GI50 stood at 31600 nM in [9] (Homo sapiens, MDA-MB-435) and 3630 nM in series [10] (Homo sapiens, HCT-116).
Consider `CN1C(=O)c2cc([N+](=O)[O-])ccc2C2C(=O)c3cc4c(cc3C21)OCO4` (racemic) [Compound 14], for which the “MGM (mean graph midpoint for growth inhibition)” value in series [1] was found to be 0.105 ± 0.007 µM. The GI50 in series [2] amounted to 33 nM; in [3], 30 nM; in series [5], 158 nM; in [6], 26 nM; in series [7], 50 nM; in [8], 24 nM. Also, the figures for the GI50 in series [9] and in series [10] were 107 nM and 14 nM, respectively. For the same compound, the “Top 1 Cleavage” value in series [4] is recorded as “+++”.
As for `O=C1c2ccccc2-c2c1c1ccc([N+](=O)[O-])cc1c(=O)n2CCCBr` [Compound 20], the “MGM (mean graph midpoint for growth inhibition)” value in series [1] worked out at 40 µM. Also, the GI50 in [2], in series [3], in series [6], in series [7], in [8] and in series [9] was above 100000 nM in each case. For the same compound, in series [10], the GI50 turned out to be 3450 nM. In [4], the “Top 1 Cleavage” value worked out at 0.
Consider `Cl.Nc1ccc2c3c(n(CCCCl)c(=O)c2c1)-c1cc2c(cc1C3=O)OCO2` [Compound 18], for which the “MGM (mean graph midpoint for growth inhibition)” value in [1] amounted to 25 µM. Besides, the GI50 in series [2], in series [3], in series [6], in series [8] and in series [9] was above 100000 nM each time. In series [4], the “Top 1 Cleavage” value is on record as 0.
In the case of `O=C1c2cc3c(cc2C2C1c1ccc([N+](=O)[O-])cc1C(=O)N2CCCBr)OCO3` (racemic) [Compound 12], the “activity (MGM)” value in series [1] (setting [11]) was 16 nm. Besides, in series [1], the “MGM (mean graph midpoint for growth inhibition)” value came to 0.016 ± 0.003 µM. In addition, the GI50 in series [2], in [3], in series [5], in series [6], in series [7] and in series [8] was below 10 nM in each case. Further, the GI50 in [9] and in [10] was below 10 nM each time. Moreover, the “Top 1 Cleavage” value in [4] is “+”.
Turning to `[N-]=[N+]=NCCCn1c2c(c3ccc([N+](=O)[O-])cc3c1=O)C(=O)c1cc3c(cc1-2)OCO3` [Compound 16], the “cytotoxicity (MGM) as stated in text” value in series [1] (setting [11]) is on record as 98 nM. Further, the “MGM (mean graph midpoint for growth inhibition)” value in series [1] is 0.098 ± 0.06 µM. The GI50 in [2], in series [3], in [5], in series [6], in series [7] and in series [8] was below 10 nM each time. Moreover, the GI50 in [9] and in [10] was below 10 nM each time. Moreover, the “Top 1 Cleavage” value in series [4] is listed as “++++”.
For `[N-]=[N+]=NCCCn1c2c(c3ccc([N+](=O)[O-])cc3c1=O)C(=O)c1ccccc1-2` [Compound 23], the “MGM (mean graph midpoint for growth inhibition)” value in series [1] was determined as 13.5 µM. The GI50 in series [2] (Homo sapiens, SN12C) is 72400 nM; in series [5] (Homo sapiens, HOP-62), above 100000 nM; in series [6] (Homo sapiens, UACC-62) it was 44700 nM; in [7] (Homo sapiens, DU-145), above 100000 nM; in series [8] (Homo sapiens, SF-268), 79400 nM; in series [9] (Homo sapiens, MDA-MB-435), above 100000 nM. Moreover, the GI50 in [10] (Homo sapiens, HCT-116) is 8130 nM.
For `O=C1c2cc3c(cc2C2C1c1ccc([N+](=O)[O-])cc1C(=O)N2CCCCl)OCO3` (racemic) [Compound 13], in series [1] (setting [11]), the “activity (MGM)” value was 18 nm. The “MGM (mean graph midpoint for growth inhibition)” value in [1] was 0.018 ± 0.001 µM. In addition, the GI50 in [2], in series [3], in [5], in series [6], in series [7] and in series [8] was below 10 nM in each case. Besides, the GI50 in series [9] and in series [10] was below 10 nM in each case. In addition, the “Top 1 Cleavage” value in [4] was “+”.
